Reference: article PMC10324063, “Comparative Saturation Binding Analysis of ^64Cu-Labeled Somatostatin Analogues Using Cell Homogenates and Intact Cells” (ACS Omega, 2023)
Where two headings read alike, the source gives them in different places. Marks after values point to notes of the source that are not given here. Positions of bridges follow the written chain, without caps; N, C: chain ends. Non-standard residues stand in square brackets, D forms with d. Residues, ends and D or L forms follow the SMILES beside them. *: point of attachment. NODAGA = O=C(O)CN1CCN(CC(=O)O)CCN(C(CCC(=O)*)C(=O)O)CC1; dPhe(4-NHCONH2) = NC(=O)Nc1ccc(C[C@@H](N)C(=O)O)cc1; Dihydroorotyl(S) = O=C1C[C@@H](C(=O)*)NC(=O)N1; Phe(4-Cl) = N[C@@H](Cc1ccc(Cl)cc1)C(=O)O; Phe(4-NH2) = Nc1ccc(C[C@H](N)C(=O)O)cc1

What was measured:
MPC cells [1] = system: MPC cells; parameters: method as in Brandt et al.[16], Brandt et al.[17]; conditions: intact MPC cells, 20 nM radioligand, 1 h, 37 °C, acid wash glycine pH 2.8; previously published; ref Brandt et al.[16], Brandt et al.[17]; cited from earlier work
MPC cells [2] = test: Cell binding and uptake (acid wash) in MPC cells; assay type: cell-based, mouse; conditions: intact MPC cells, 20 nM radioligand, 1 h, 37 °C, acid wash 0.05 M glycine pH 2.8 for 5 min; nonspecific with 20 μM Acetyl-TATE; from mean values of one experiment in sextuplicate
Experimental: MPC cells were seeded into collagen-coated 24-well microplates and cultivated for 4 days. All washing steps were performed using PBS containing 0.9 mM CaCl2 and 0.5 mM MgCl2. Total radioligand uptake was measured after incubation with the radioligand (Am = 30 GBq/μmol) at a final concentration of 20 nM in RPMI 1640 medium with GlutaMAX supplement (Thermo Fisher Scientific) for 1 h at 37 and 4 °C. Nonspecific binding was determined in the presence of 20 μM Acetyl-TATE. The uptake fraction was measured after acid wash of cell surface-bound radioligand with wash buffer containing 0.05 M glycine, pH 2.8, for 5 min. The activity of cell homogenates was measured using the γ counter Wizard (PerkinElmer). The protein content of cell homogenates was measured as described above.
Nonspecific binding was determined in the presence of 20 µM Acetyl -TATE (radioligand concentration of 20 nM). Data shown in A and B are mean values (±SD) of one experiment, which was performed in sextuplicate. In C, the uptake fraction (“internalized” or not acid releasable radioligand, red bars in A, mean values) is expressed as percentage of specific total-bound radioligand (blue bars in A, mean values). The difference to 100% was assigned to “surface-bound” radioligand. For a better overview, the compound names were abbreviated. […]
specific binding of radioligand
Incubation at 37°C for 1 h […]

[3] = Radioligand stability toward intact MPC cells under assay conditions; assay type: in vitro ADME, mouse; conditions: 40 nM radioligand, 37 °C, radio-HPLC of supernatant
Description: (§1) Considering the aforementioned exposure of the radioligands to intracellular components in cell homogenates, a degradation by intracellular proteases could lead to reduced radioligand concentrations and thus apparently higher Kd values. While most of the serine and cysteine proteases might be inhibited by the used inhibitor cocktail during homogenization (see Materials and Methods), a residual proteolytic activity cannot be excluded. Therefore, for the two radioligands, [^64Cu]Cu-NODAGA-NES2-TATE and [^64Cu]Cu-NODAGA-NES5-TATE, the stability toward cell homogenates and intact cells under assay conditions were exemplarily examined (Figure S3 in the Supporting Information).
(§2) Figure S3: Stability toward cell homogenate and intact cells
(§3) [64Cu]Cu-NODAGA-NES2-TATE and [64Cu]Cu-NODAGA-NES5-TATE (40 nM) were incubated at 37°C under assay conditions in the presence of MPC cell homogenate or MPC intact cells. After 1 h, an aliquot (160 µL) was withdrawn, mixed with “Supersol” (320 µL), which consists of 20% ethanol, 0.5% Triton X-100, 5 mM EDTA, 0.5 mM o-phenanthroline, and 0.1% saponin. This was followed by centrifugation at 13,500 rpm for 3 min (Thermo Scientific Heraeus Fresco 21). The supernatant was analyzed by radio-HPLC.1, 2 […]
(§4) (1 picture or pasted object on this page, not shown here)

[4] = Radioligand stability toward MPC cell homogenate under assay conditions; assay type: in vitro ADME, mouse; conditions: 40 nM radioligand, 37 °C, radio-HPLC of supernatant
Description: as §1, §2, §3, §4

SST2 [5] = target: T1, SST2 (Mus musculus, UniProt P30875); test: Saturation binding of 64Cu-labeled radioligands to intact MPC cells (adherent); conditions: 1 h, 37 °C, mean (68% confidence interval) of one experiment in duplicate or triplicate
T1 construct: endogenous in cells; host or cells: MPC (mouse pheochromocytoma) cells, passages 35-40
T1 sequence (P30875 whole entry): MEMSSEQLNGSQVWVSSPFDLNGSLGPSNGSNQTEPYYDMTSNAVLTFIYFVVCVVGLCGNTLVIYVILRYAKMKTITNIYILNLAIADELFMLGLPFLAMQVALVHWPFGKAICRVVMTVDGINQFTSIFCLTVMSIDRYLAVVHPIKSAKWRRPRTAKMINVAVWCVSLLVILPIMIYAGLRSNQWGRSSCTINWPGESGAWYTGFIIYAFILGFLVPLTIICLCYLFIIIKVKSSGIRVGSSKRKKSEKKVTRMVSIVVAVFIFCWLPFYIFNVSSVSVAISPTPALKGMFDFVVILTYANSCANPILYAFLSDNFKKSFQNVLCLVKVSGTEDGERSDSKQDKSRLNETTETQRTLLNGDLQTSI
Experimental: A number of 3 × 10^5 cells/cm^2 were seeded in collagen-coated 48-well microplates (CELLSTAR 48 Well Cell Culture Multiwell Plates, Polystyrene, Greiner bio-one, Item no. 677180) and grown for three days. For binding assays, cell culture medium was removed and replaced by fresh medium supplemented with the radioligand (Am = 25 MBq/nmol) at increasing final concentrations between 0.321 and 40 nM (final sample volume 0.2 mL). […] Samples were incubated for 60 min at 37 °C. Incubation was stopped by washing with ice-cold Dulbecco’s PBS. Cells were lysed with 0.1 M NaOH containing 1% (w/v) SDS. Activity was measured in cell homogenates and in a series of radioligand standards containing increasing molar amounts between 0.06 and 8 pmol using the gamma counter Wizard (PerkinElmer). […] Measurements for total binding were performed in triplicate, while measurements for nonspecific binding were performed in duplicates.
Plots of “total binding” = f(radioligand) were analyzed by nonlinear regressions using the model of “one site—total, accounting for ligand depletion” as implemented in GraphPad Prism and Plots of “nonspecific binding” = f(radioligand) were analyzed by linear regressions. For the ligand depletion model, the term “NS” was constrained to the respective slopes obtained by the linear regressions. […]

SST2 [6] = target: T1, SST2; test: Saturation binding of 64Cu-labeled radioligands to MPC cell homogenates; conditions: read-out: Kd, MPC cell homogenate
Experimental: MPC cells (passages 35–40) were routinely cultured in collagen-coated flasks as described elsewhere[49] and harvested at 70–80% confluency in Dulbecco’s phosphate-buffered saline containing 2.0 mM ethylenediaminetetraacetic acid (EDTA) at 4 °C for 30 min. Cells were resuspended and frozen in fetal bovine serum containing 10% (v/v) DMSO and stored at −70 °C. After thawing, cells were washed and resuspended in ice-cold saturation assays buffer, pH 7.4, containing 50 mM Tris-HCl, 1 mM EDTA, 0.5 mM o-phenanthroline, and 0.1% (w/v) bovine serum albumin. Cells were homogenized in ice-cold saturation assay buffer supplemented with complete EDTA-free proteinase inhibitor (Roche, Basel Switzerland) using a Dounce homogenizer. Protein content of cell homogenates was measured at A280nm (setting 1 Abs = 1 mg/mL) using a nanodrop spectrophotometer (Thermo-Fisher Scientific).
For the measurement of total binding, 0.155 mL of cell homogenates were incubated with radioligands (molar activity (Am) = 25 MBq/nmol) at increasing final concentrations between 0.625 and 40 nM (final sample volume 0.2 mL) in Polystyrene tubes (5 mL, round bottom, clear, Greiner bio-one, Item no. 115101). […] Activity bound to filters was measured using the gamma counter Wizard (PerkinElmer). Activity in a series of radioligand standards was measured at increasing molar amounts between 0.625 and 40 nM. […]

## C[C@@H](O)[C@H](NC(=O)[C@@H]1CSSC[C@H](NC(=O)[C@@H](Cc2ccccc2)NC(=O)COCCOCCNC(=O)[C@H](CCCCN=[N+]=[N-])NC(=O)[C@H](Cc2ccccc2)NC(=O)CNC(=O)[C@@H](CCCNC(=N)N)NC(=O)c2ccc(CNC(=O)CCC(C(=O)O)N3CCN(CC(=O)O)CCN(CC(=O)O)CC3)cc2)C(=O)N[C@@H](Cc2ccc(O)cc2)C(=O)N[C@H](Cc2c[nH]c3ccccc23)C(=O)N[C@@H](CCCCN)C(=O)N[C@@H]([C@@H](C)O)C(=O)N1)C(=O)O (stereo partly shown) [NES4-TATE]
MPC cells [1]
  uptake fraction (internalized or not acid releasable radioligand) as percentage of specific total-bound radioligand: 53 ^d %

## CCCC[C@H](NC(=O)CCC(C(=O)O)N1CCN(CC(=O)O)CCN(CC(=O)O)CC1)C(=O)N[C@H](C(=O)N[C@@H](CCCCN=[N+]=[N-])C(=O)NCCOCCOCC(=O)N[C@H](Cc1ccccc1)C(=O)N[C@H]1CSSC[C@@H](C(=O)N[C@H](C(=O)O)[C@@H](C)O)NC(=O)[C@H]([C@@H](C)O)NC(=O)[C@H](CCCCN)NC(=O)[C@@H](Cc2c[nH]c3ccccc23)NC(=O)[C@H](Cc2ccc(O)cc2)NC1=O)C(C)C (stereo partly shown) [NES1-TATE]
MPC cells [1]
  uptake fraction (internalized or not acid releasable radioligand) as percentage of specific total-bound radioligand: 49 ^d %

## C#CC[C@H](NC(=O)CCC(C(=O)O)N1CCN(CC(=O)O)CCN(CC(=O)O)CC1)C(=O)NCCOCCOCC(=O)N[C@H](Cc1ccccc1)C(=O)N[C@H]1CSSC[C@@H](C(=O)N[C@H](C(=O)O)[C@@H](C)O)NC(=O)[C@H]([C@@H](C)O)NC(=O)[C@H](CCCCN)NC(=O)[C@@H](Cc2c[nH]c3ccccc23)NC(=O)[C@H](Cc2ccc(O)cc2)NC1=O (stereo partly shown) [Pra-PEG2-TATE]
MPC cells [2]
  uptake fraction (internalized or not acid releasable radioligand) as percentage of specific total-bound radioligand: 48%

## C[C@@H](O)[C@H](NC(=O)[C@@H]1CSSC[C@H](NC(=O)[C@@H](Cc2ccccc2)NC(=O)COCCOCCNC(=O)[C@H](Cc2cn(CCCCC(=O)N[C@H](CCCCNC(=O)CCCc3ccc(I)cc3)C(=O)O)nn2)NC(=O)CCC(C(=O)O)N2CCN(CC(=O)O)CCN(CC(=O)O)CC2)C(=O)N[C@@H](Cc2ccc(O)cc2)C(=O)N[C@H](Cc2c[nH]c3ccccc23)C(=O)N[C@@H](CCCCN)C(=O)N[C@@H]([C@@H](C)O)C(=O)N1)C(=O)O (stereo partly shown) [cLAB1-TATE]
MPC cells [2]
  uptake fraction (internalized or not acid releasable radioligand) as percentage of specific total-bound radioligand: 66%

## CCCC[C@H](NC(=O)c1ccc(CNC(=O)CCC(C(=O)O)N2CCN(CC(=O)O)CCN(CC(=O)O)CC2)cc1)C(=O)N[C@H](C(=O)N[C@@H](CCCCN=[N+]=[N-])C(=O)NCCOCCOCC(=O)N[C@H](Cc1ccccc1)C(=O)N[C@H]1CSSC[C@@H](C(=O)N[C@H](C(=O)O)[C@@H](C)O)NC(=O)[C@H]([C@@H](C)O)NC(=O)[C@H](CCCCN)NC(=O)[C@@H](Cc2c[nH]c3ccccc23)NC(=O)[C@H](Cc2ccc(O)cc2)NC1=O)C(C)C (stereo partly shown) [NES2-TATE]
[3]
  stability (radioligand remaining stable) after 1 h of incubation with intact MPC cells: ≥ 87%
[4]
  stability (radioligand remaining stable) after 1 h of incubation with MPC cell homogenate: ≥ 87%
MPC cells [1]
  uptake fraction (internalized or not acid releasable radioligand) as percentage of specific total-bound radioligand: 56 ^d %

## C[C@@H](O)[C@H](NC(=O)[C@@H]1CSSC[C@H](NC(=O)[C@@H](Cc2ccccc2)NC(=O)COCCOCCNC(=O)[C@H](CCCCn2cc(CCC(=O)N[C@@H](CCCCNC(=O)CCCc3ccc(I)cc3)C(=O)O)nn2)NC(=O)[C@H](Cc2ccccc2)NC(=O)CNC(=O)[C@@H](CCCNC(=N)N)NC(=O)c2ccc(CNC(=O)CCC(C(=O)O)N3CCN(CC(=O)O)CCN(CC(=O)O)CC3)cc2)C(=O)N[C@@H](Cc2ccc(O)cc2)C(=O)N[C@H](Cc2c[nH]c3ccccc23)C(=O)N[C@@H](CCCCN)C(=O)N[C@@H]([C@@H](C)O)C(=O)N1)C(=O)O (stereo partly shown) [NES5-TATE]
[3]
  stability (radioligand remaining stable) after 1 h of incubation with intact MPC cells: ≥ 87%
[4]
  stability (radioligand remaining stable) after 1 h of incubation with MPC cell homogenate: ≥ 87%
MPC cells [1]
  uptake fraction (internalized or not acid releasable radioligand) as percentage of specific total-bound radioligand: 62 ^d %

## C[C@@H](O)[C@H](NC(=O)[C@@H]1CSSC[C@H](NC(=O)[C@@H](Cc2ccccc2)NC(=O)COCCOCCNC(=O)[C@H](CCCCN=[N+]=[N-])NC(=O)[C@H](Cc2ccccc2)NC(=O)CNC(=O)c2ccc(CNC(=O)CCC(C(=O)O)N3CCN(CC(=O)O)CCN(CC(=O)O)CC3)cc2)C(=O)N[C@@H](Cc2ccc(O)cc2)C(=O)N[C@H](Cc2c[nH]c3ccccc23)C(=O)N[C@@H](CCCCN)C(=O)N[C@@H]([C@@H](C)O)C(=O)N1)C(=O)O (stereo partly shown) [NES3-TATE]
MPC cells [1]
  uptake fraction (internalized or not acid releasable radioligand) as percentage of specific total-bound radioligand: 68 ^d %

## C[C@@H](O)[C@@H]1NC(=O)[C@H](CCCCN)NC(=O)[C@@H](Cc2ccc(NC(N)=O)cc2)NC(=O)[C@H](Cc2ccc(NC(=O)[C@@H]3CC(=O)NC(=O)N3)cc2)NC(=O)[C@H](NC(=O)[C@H](Cc2ccc(Cl)cc2)NC(=O)CCC(C(=O)O)N2CCN(CC(=O)O)CCN(CC(=O)O)CC2)CSSC[C@@H](C(=O)N[C@H](Cc2ccc(O)cc2)C(N)=O)NC1=O (stereo partly drawn) [JR11] ({NODAGA}-[Phe(4-Cl)][dC][Phe(4-NH2)](Dihydroorotyl(S))[dPhe(4-NHCONH2)]KTC[dY]-NH2; disulfide 2-7)
SST2 [5]
  Kd: 8.17 nM
SST2 [6]
  Kd: 5.35 nM
